Literature values, collected in US9320732B2, “1,2,5-oxadiazoles as inhibitors of indoleamine 2,3-dioxygenase” (Incyte Corporation, priority 2008, dated 2016).

Columns and labels:
LLC tumors = conditions: C57Bl/6 mice, versus placebo
[1] = system: allogeneic concepti in pregnant mice; conditions: pregnant mice exposed to 1MT
P815 tumor = conditions: immune-competent pre-immunized mice

**Q.** What does the source list for `Cn1cc(C[C@H](N)C(=O)O)c2ccccc21` [Example 1-MT, 1-methyl-tryptophan]?
**A.** formation of LLC tumors (LLC tumors): markedly delayed; rejection of allogeneic concepti [1]: rapid, T cell-induced rejection of all allogeneic concepti; growth of tumors in pre-immunization model (P815 tumor): inhibited
